These results are taken from ChEMBL document CHEMBL4425085, “Challenges and Perspectives on the Development of Small-Molecule EGFR Inhibitors against T790M-Mediated Resistance in Non-Small-Cell Lung Cancer” (J Med Chem, 2016).

In one assay the test system is A-431. Kind of assay: Antiproliferative activity against human A431 cells expressing wild type EGFR by MTS assay. Format: cell-based. Background: Tetrazolium dyes change colour on reduction, which living cells bring about.
For a further assay, the species on record is Homo sapiens. Kind of assay: Selectivity ratio of Kd for wild type partial length human EGFR to Kd for partial length human EGFR L858R/T790M double mutant.
Assay [1] relates to NCI-H1975. Kind of assay: Antiproliferative activity against human NCI-H1975 cells expressing EGFR L858R/T790M double mutant by MTS assay. It is filed as functional, cell-based.
The nature of assay [2]: Selectivity ratio of IC50 for human A431 cells expressing wild type EGFR to IC50 for human NCI-H1975 cells expressing EGFR L858R/T790M double mutant.
Assay [3] concerns the target Epidermal growth factor receptor (Homo sapiens, UniProt P00533). Kind of assay: Binding affinity to wild type partial length human EGFR expressed in bacterial system by KINOMEscan assay.
The target in assay [4] is Epidermal growth factor receptor (Homo sapiens, UniProt P00533, L858R/T790M). Kind of assay: Binding affinity to partial length human EGFR L858R/T790M double mutant expressed in mammalian system by KINOMEscan assay.
Assay [5] has as its system BaF3. Kind of assay: Antiproliferative activity against mouse BA/F3 cells expressing wild type EGFR after 72 hrs by MTS assay. It is filed as cell-based. To be noted: BaF3, 72 h.
The subject of assay [6] is NCI-H1975. Kind of assay: Antiproliferative activity against gefitinib resistant human NCI-H1975 cells expressing EGFR L858R/T790M double mutant after 72 hrs by MTS assay. To be noted: NCI-H1975, 72 h. It is filed as functional, cell-based.
Assay [7] deals with NCI-H1975. Kind of assay: Potency index, ratio of gefitinib IC50 to compound IC50 for gefitinib resistant human NCI-H1975 cells expressing EGFR L858R/T790M double mutant. It is filed as functional.
Assay [8] deals with BaF3. Kind of assay: Antiproliferative activity against gefitinib resistant mouse BA/F3 cells expressing EGFR L858R/T790M double mutant after 72 hrs by MTS assay. To be noted: BaF3, 72 h. Format: functional, cell-based.
The test system of assay [9] is BaF3. Kind of assay: Antiproliferative activity against gefitinib sensitive mouse BA/F3 cells expressing EGFR exon 19 del E746_A750 activating mutant after 72 hrs by MTS assay. As to conditions: BaF3, 72 h. It is filed as functional, cell-based.
The test system of assay [10] is BaF3. Kind of assay: Potency index, ratio of gefitinib IC50 to compound IC50 for gefitinib resistant mouse BA/F3 cells expressing EGFR L858R/T790M double mutant. It is filed as functional.
For assay [11], the system named is BaF3. Kind of assay: Selectivity ratio of IC50 for gefitinib sensitive mouse BA/F3 cells expressing wild type EGFR to IC50 for gefitinib resistant mouse BA/F3 cells expressing EGFR L858R/T790M double mutant.
In another assay the test system is PC-9. Kind of assay: Antiproliferative activity against gefitinib resistant human PC9 cells expressing EGFR del E746_A750/T790M mutant after 72 hrs by MTS assay. It is filed as functional, cell-based. As to conditions: PC-9, 72 h.
For assay [12], the system named is NCI-H1975. Kind of assay: Antiproliferative activity against human NCI-H1975 cells expressing EGFR L858R/T790M double mutant assessed as decrease in cell viability after 48 hrs by WST assay. Format: functional, cell-based. To be noted: NCI-H1975, 48 h.

Sequence of Epidermal growth factor receptor (Homo sapiens, UniProt P00533, L858R/T790M) (P00533 25-1210 T790M/L858R limits assumed): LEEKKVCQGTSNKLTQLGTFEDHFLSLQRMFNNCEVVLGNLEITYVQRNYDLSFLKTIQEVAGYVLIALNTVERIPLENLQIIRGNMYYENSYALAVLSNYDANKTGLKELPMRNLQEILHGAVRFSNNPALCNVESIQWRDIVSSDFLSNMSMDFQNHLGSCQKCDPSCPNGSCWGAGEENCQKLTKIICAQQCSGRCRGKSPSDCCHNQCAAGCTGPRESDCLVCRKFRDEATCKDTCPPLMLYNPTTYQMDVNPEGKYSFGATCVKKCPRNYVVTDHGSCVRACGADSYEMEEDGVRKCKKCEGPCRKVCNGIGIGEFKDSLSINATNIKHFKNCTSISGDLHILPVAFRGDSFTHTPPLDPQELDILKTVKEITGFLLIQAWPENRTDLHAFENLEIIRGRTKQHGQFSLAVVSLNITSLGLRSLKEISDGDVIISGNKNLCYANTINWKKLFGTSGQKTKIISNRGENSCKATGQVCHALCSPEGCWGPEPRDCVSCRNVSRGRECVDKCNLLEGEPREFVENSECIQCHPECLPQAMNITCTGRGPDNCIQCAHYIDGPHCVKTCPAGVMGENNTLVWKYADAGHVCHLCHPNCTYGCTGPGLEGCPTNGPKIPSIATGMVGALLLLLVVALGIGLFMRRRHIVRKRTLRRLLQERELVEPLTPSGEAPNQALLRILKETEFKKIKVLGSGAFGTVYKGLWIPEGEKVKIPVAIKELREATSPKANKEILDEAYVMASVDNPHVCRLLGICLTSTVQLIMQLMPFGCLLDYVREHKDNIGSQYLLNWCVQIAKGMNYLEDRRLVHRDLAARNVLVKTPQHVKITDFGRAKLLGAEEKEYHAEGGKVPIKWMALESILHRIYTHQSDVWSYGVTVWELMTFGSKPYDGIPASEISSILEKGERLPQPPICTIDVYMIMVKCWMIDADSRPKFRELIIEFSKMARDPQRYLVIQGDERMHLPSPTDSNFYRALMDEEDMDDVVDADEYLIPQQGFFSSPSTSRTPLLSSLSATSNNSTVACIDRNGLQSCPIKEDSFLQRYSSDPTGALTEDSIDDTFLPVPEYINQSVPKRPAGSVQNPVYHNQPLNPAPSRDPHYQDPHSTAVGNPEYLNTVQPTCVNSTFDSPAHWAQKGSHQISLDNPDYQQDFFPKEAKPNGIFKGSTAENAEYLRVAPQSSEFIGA
Sequence of Epidermal growth factor receptor (Homo sapiens, UniProt P00533) (P00533 whole entry): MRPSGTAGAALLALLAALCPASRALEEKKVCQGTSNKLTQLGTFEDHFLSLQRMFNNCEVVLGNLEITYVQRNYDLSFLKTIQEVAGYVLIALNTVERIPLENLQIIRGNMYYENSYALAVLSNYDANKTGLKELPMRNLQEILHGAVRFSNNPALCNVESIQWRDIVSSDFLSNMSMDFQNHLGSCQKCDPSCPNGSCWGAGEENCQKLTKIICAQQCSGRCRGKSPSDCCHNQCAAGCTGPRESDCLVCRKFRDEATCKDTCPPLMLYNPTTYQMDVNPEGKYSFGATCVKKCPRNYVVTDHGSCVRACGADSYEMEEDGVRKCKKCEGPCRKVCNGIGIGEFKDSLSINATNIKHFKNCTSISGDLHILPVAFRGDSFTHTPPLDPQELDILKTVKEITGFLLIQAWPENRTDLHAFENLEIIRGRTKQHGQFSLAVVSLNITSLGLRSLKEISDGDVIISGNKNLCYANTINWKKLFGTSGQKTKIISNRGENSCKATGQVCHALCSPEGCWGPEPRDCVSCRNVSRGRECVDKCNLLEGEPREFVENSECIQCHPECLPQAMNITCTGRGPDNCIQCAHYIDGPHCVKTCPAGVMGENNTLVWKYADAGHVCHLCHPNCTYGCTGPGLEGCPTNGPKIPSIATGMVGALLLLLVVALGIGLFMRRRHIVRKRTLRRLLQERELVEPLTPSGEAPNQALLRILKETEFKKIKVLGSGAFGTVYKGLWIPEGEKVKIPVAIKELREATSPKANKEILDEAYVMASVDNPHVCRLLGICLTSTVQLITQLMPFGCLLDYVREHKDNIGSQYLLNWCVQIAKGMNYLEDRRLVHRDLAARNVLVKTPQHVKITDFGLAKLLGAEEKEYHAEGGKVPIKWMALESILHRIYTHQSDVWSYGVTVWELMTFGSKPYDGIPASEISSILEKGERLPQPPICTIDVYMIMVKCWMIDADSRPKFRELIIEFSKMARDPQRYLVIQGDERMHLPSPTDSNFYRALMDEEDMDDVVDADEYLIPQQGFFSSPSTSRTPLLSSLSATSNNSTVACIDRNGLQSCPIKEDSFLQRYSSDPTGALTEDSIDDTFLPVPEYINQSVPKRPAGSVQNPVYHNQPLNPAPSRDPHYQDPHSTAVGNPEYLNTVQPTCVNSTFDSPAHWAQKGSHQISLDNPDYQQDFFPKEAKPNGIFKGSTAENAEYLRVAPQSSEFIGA

As usually defined, the IC50 is the concentration at which inhibition is half-maximal. For orientation: Kd means the free concentration of one partner at which half of the binding sites on the other are occupied at equilibrium, for simple one-to-one binding. As for `C=CC(=O)Nc1cccc(-n2c3nc(Nc4ccc(N5CCN(C)CC5)cc4OC)ncc3c(=O)n3c4ccccc4nc23)c1`, the IC50 with A-431 turned out to be 3.57 µM; in the assay with NCI-H1975 [1] it was 307 nM. Besides, the Selectivity ratio in the assay filed under Homo sapiens was determined as 100. Moreover, the “Ratio IC50” value in assay [2] was determined as 12. For the same molecule, the values for the Kd in [3] and in assay [4] were 110 nM and 1.1 nM, respectively.

Regarding `C=CC(=O)Nc1cccc(Sc2nc(Nc3ccc(N4CCN(C)CC4)cc3)ncc2Cl)c1`, the IC50 is 32 nM with BaF3 [5], 9 nM with NCI-H1975 [6], 9 nM in the assay with BaF3 [8] and 2 nM in the assay with BaF3 [9]. The figures for the “Ratio IC50” value in the assay on NCI-H1975 [7], with BaF3 [10] and in the assay with BaF3 [11] were 30 - 100, 30 - 100 and 4, respectively.

For `C=CC(=O)Nc1cccc(N2C3=NCCCCN3C(=O)c3cnc(Nc4ccc(N5CCN(C)CC5)cc4OC)nc32)c1`, the results for the IC50 with A-431 and with NCI-H1975 [1] were 1.54 µM and 648 nM, respectively. The Selectivity ratio in the assay listed under Homo sapiens is 20. The “Ratio IC50” value in [2] came to 3. Besides, the Kd in [3] is 17 nM; in assay [4] it was 0.88 nM.

With `C=CC(=O)Nc1cccc(Oc2nc(Nc3ccc(N4CCN(C)CC4)cc3OC)ncc2Cl)c1`, the half-inhibitory concentration (IC50) in the assay with A-431 worked out at 1.04 µM; with BaF3 [5], 113 nM; in the assay with NCI-H1975 [6], 47 nM; in the assay on NCI-H1975 [1], 55 nM; in the assay with PC-9, 14 nM; in the assay with BaF3 [8] it was 8 nM. For the same molecule, the IC50 with BaF3 [9] was found to be 3 nM.

Take `C=CC(=O)Nc1cccc(-n2c3nc(Nc4ccc(N5CCN(C)CC5)cc4OCC)ncc3c(=O)n3ccnc23)c1`: the IC50 was 5.25 µM with A-431 and 396 nM with NCI-H1975 [1]. Further, in the assay filed under Homo sapiens, the Selectivity ratio amounted to 136. Besides, the “Ratio IC50” value in assay [2] amounted to 13. Besides, the Kd in assay [3] came out at 420 nM; in [4], 3.1 nM.

Turning to `C=CC(=O)Nc1cccc(-n2c3nc(Nc4ccc(N5CCN(NC)CC5)cc4OC)ncc3c(=O)n3ccnc23)c1`, the IC50 in the assay with A-431 is 14.5 µM; in the assay on NCI-H1975 [1], 86 nM. Moreover, the Selectivity ratio in the assay listed under Homo sapiens came to 119. Besides, the “Ratio IC50” value in assay [2] amounted to 169. Besides, the Kd in [3] amounted to 310 nM; in assay [4], 2.6 nM.

With `CN(C)C/C=C/C(=O)Nc1cc2c(Nc3ccc(F)c(Cl)c3)ncnc2cc1O[C@H]1CCOC1` [AFATINIB], in the assay on NCI-H1975 [12], the 50% inhibitory concentration (IC50) was 900 nM.

In the case of `C=CC(=O)Nc1cccc(-n2c3nc(Nc4ccc(N5CCOCC5)cc4OC)ncc3c(=O)n3ccnc23)c1`, the values for the IC50 in the assay with A-431 and in the assay on NCI-H1975 [1] were more than 30 µM and 476 nM, respectively. The Selectivity ratio in the assay listed under Homo sapiens came out at 156. The “Ratio IC50” value in assay [2] is listed as 63. Also, the Kd was 950 nM in [3] and 6.1 nM in assay [4].

Consider `C=CC(=O)Nc1cccc(-n2c3nc(Nc4ccc(N5CCN(C)CC5)cc4OC)ncc3c(=O)n3ccnc23)c1`, for which the IC50 was 2.98 µM in the assay on A-431 and 143 nM with NCI-H1975 [1]. The Selectivity ratio in the assay listed under Homo sapiens was 78. Also, the “Ratio IC50” value in assay [2] is 21. Also, the figures for the Kd in [3] and in assay [4] were 140 nM and 1.8 nM, respectively.

As for `C=CC(=O)Nc1cccc(Oc2nc(Nc3ccc(N4CCN(C)CC4)cc3)ncc2Cl)c1`, the IC50 was determined as 24 nM with BaF3 [5], 29 nM with NCI-H1975 [6], 5 nM in the assay on BaF3 [8] and 2 nM in the assay with BaF3 [9]. Also, the results for the “Ratio IC50” value in the assay on NCI-H1975 [7], with BaF3 [10] and with BaF3 [11] were 30 - 100, 30 - 100 and 5, respectively.
